Structures are written as SMILES.

The target of assay [1] is BTK kinase (Homo sapiens (Human), UniProt Q06187). Kind of assay: Btk kinase enzymatic assay (HTRF). Format: biochemical. The settings on record: ATP at Km. As to the method: Btk kinase activity was determined using a Homogeneous Time-Resolved Fluorescence (HTRF) methodology (Cisbio). […] The mixture was centrifuged and incubated for 5 min. […] For each compound, enzyme activity was measured at various concentrations of compound, and IC50s were obtained by GraFit Software 6.0 (Erithacus Software).
In general terms: Time-resolved FRET reads energy transfer from a long-lived donor to a nearby acceptor.

Assay [2] concerns Ramos cells. Kind of assay: BCR-induced calcium flux fluorescence-based assay in Ramos cells. The settings on record: Ramos cells stimulated with goat anti-human IgM antibody; read-out: Ramos Cell Ca Flux IC50. As to the method:
Calcium flux fluorescence-based assays were performed using Fluo-4 Direct™ Calcium Assay Kits (purchased from Invitrogen) in a FlexStation III (purchased from Molecular Devices) according to manufacturer instructions. In brief, actively growing Romas cells in RPM1-1640 medium (purchased from Invitrogen) supplemented with 10% FBS (purchased from Hyclone) were washed and re-plated in low serum medium at approximately 1×10^5 cells per 45 μL per well in a 96-well plate (purchased from Corning), then added 45 μL of dye (purchased from Invitrogen) and incubated at 37 degree for 1 hour. Compounds to be assayed were dissolved and 3-fold serially diluted in DMSO and then diluted by 100 times in low serum medium. Then 10 μL of the diluted mixture were added to the above 96-well plate (final DMSO concentration was 0.1%) and incubated at 37 degree in 5% CO2 incubator for 0.5 hour. The compound-treated cells were stimulated with a goat anti-human IgM antibody (10 μg/ml; purchased from SouthernBiotech) and read in the FlexStation III using a λEx=494 nM and […] for 90 seconds. The relative fluorescence unit (RFU) and the IC50 were recorded and analyzed using a GraphPad Prism 5 (GraphPad Software).

BTK kinase, sequence (Q06187 whole entry): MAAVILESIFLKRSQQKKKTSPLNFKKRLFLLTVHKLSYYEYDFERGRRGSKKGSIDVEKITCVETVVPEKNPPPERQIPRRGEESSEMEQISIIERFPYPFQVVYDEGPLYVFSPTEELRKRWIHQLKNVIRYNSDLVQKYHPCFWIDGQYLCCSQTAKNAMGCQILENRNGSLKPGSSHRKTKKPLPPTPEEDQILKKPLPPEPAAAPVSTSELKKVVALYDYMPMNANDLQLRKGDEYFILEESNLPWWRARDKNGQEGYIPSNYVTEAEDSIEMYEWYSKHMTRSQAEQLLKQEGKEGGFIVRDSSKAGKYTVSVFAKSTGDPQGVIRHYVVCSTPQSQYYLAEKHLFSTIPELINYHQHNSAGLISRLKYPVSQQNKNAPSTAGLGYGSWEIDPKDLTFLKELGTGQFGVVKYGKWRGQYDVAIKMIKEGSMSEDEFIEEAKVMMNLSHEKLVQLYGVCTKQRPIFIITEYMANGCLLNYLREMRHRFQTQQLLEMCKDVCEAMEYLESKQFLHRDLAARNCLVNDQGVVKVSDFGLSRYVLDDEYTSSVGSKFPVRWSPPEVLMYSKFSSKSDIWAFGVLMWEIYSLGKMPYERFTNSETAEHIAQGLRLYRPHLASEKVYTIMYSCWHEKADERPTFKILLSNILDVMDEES

Turning to `C=CC(=O)N1CC[C@@H](n2nc(-c3ccc(Oc4ccccc4)cc3)c(C(N)=O)c2N)C1` [25 (R-isomer)], the IC50 in assay [1] and in assay [2] was less than 100 nM each time. As for `C=CC(=O)N1CC[C@H](n2nc(-c3ccc(Oc4ccccc4)cc3)c(C(N)=O)c2N)C1` [25 (S-isomer)], the half-inhibitory concentration (IC50) in assay [1] and in assay [2] was less than 100 nM each time. `C=CS(=O)(=O)N1CCC[C@@H](n2nc(-c3ccc(Oc4ccccc4)cc3)c(C(N)=O)c2N)C1` [27 (R-isomer)]: the IC50 in assay [1] and in assay [2] was less than 100 nM in each case.

Regarding `C=CC(=O)N1CCCC(n2nc(-c3ccc(Oc4ccccc4)cc3)c(C(N)=O)c2NC)C1` (stereo not shown) [Example 1, 1-(1-acryloylpiperidin-3-yl)-5-(methylamino)-3-(4-phenoxyphenyl)-1H-pyrazole-4-carboxamide], the IC50 in assay [1] and in assay [2] was less than 100 nM each time. As for `C=CC(=O)N1CCC[C@@H](n2nc(-c3ccc(Oc4ccccc4)cc3)c(C(N)=O)c2NC)C1` [Example 2, (R)-1-(1-acryloylpiperidin-3-yl)-5-(methylamino)-3-(4-phenoxyphenyl)-1H-pyrazole-4-carboxamide], the IC50 in assay [1] and in assay [2] was less than 100 nM each time. With `C=CC(=O)N1CCCC(n2nc(-c3ccc(Oc4ccccc4)cc3)c(C(N)=O)c2NCC)C1` (stereo not shown) [Example 6, 1-(1-acryloylpiperidin-3-yl)-5-(ethylamino)-3-(4-phenoxyphenyl)-1H-pyrazole-4-carboxamide], the IC50 in assay [1] and in assay [2] was less than 100 nM each time. For `C=CC(=O)N1CCCC(n2nc(-c3ccc(Oc4ccccc4)cc3)c(C(N)=O)c2NCCN2CCOCC2)C1` (stereo not shown) [Example 13, 1-(1-acryloylpiperidin-3-yl)-5-(2-morpholinoethylamino)-3-(4-phenoxy-phenyl)-1H-pyrazole-4-carboxamide], the IC50 in assay [1] and in assay [2] was less than 100 nM each time.

For `C=CC(=O)N1CCCC(n2nc(-c3ccc(Oc4ccccc4)cc3)c(C(N)=O)c2NCCN2CCN(C)CC2)C1` (stereo not shown) [Example 15, 1-(1-acryloylpiperidin-3-yl)-5-(2-(4-methylpiperazin-1-yl)ethylamino)-3-(4-phenoxy-phenyl)-1H-pyrazole-4-carboxamide], the IC50 in assay [1] and in assay [2] was less than 100 nM in each case. As to `C=CC(=O)N1CCC[C@@H](n2nc(-c3ccc(Oc4ccccc4)cc3)c(C(N)=O)c2N)C1` [Example 18, (R)-1-(1-acryloylpiperidin-3-yl)-5-amino-3-(4-phenoxyphenyl)-1H-pyrazole-4-carboxamide], the IC50 in assay [2] is less than 100 nM. `NC(=O)c1c(-c2ccc(Oc3ccccc3)cc2)nn(C2CCCCC2)c1N` [Example 20, 5-amino-1-cyclohexyl-3-(4-phenoxyphenyl)-1H-pyrazole-4-carboxamide]: the IC50 in assay [1] and in assay [2] was less than 100 nM each time. For the compound `C=CC(=O)N1CCCC(n2nc(-c3ccc(Oc4ccccc4)cc3)c(C(N)=O)c2N)C1` (stereo not shown) [Example 22, 1-(1-acryloylpiperidin-3-yl)-5-amino-3-(4-phenoxyphenyl)-1H-pyrazole-4-carboxamide], the IC50 in assay [2] was less than 100 nM.

For `C=CC(=O)N1CCC[C@H](n2nc(-c3ccc(Oc4ccccc4)cc3)c(C(N)=O)c2N)C1` [Example 23, (S)-1-(1-acryloylpiperidin-3-yl)-5-amino-3-(4-phenoxyphenyl)-1H-pyrazole-4-carboxamide], in assay [2], the IC50 is less than 100 nM. Take `C=CC(=O)N1CCC(n2nc(-c3ccc(Oc4ccccc4)cc3)c(C(N)=O)c2N)CC1` [Example 24, 1-(1-acryloylpiperidin-4-yl)-5-amino-3-(4-phenoxyphenyl)-1H-pyrazole-4-carboxamide]: the IC50 in assay [1] and in assay [2] was less than 100 nM in each case.

As for `C=CC(=O)N1CCC(n2nc(-c3ccc(Oc4ccccc4)cc3)c(C(N)=O)c2N)C1` (stereo not shown) [Example 25, 1-(1-acryloylpyrrolidin-3-yl)-5-amino-3-(4-phenoxyphenyl)-1H-pyrazole-4-carboxamide], the IC50 in assay [1] and in assay [2] was less than 100 nM in each case.

As for `C#CC(=O)N1CCCC(n2nc(-c3ccc(Oc4ccccc4)cc3)c(C(N)=O)c2N)C1` (stereo not shown) [Example 26, 5-amino-3-(4-phenoxyphenyl)-1-(1-propioloylpiperidin-3-yl)-1H-pyrazole-4-carboxamide], the IC50 in assay [1] and in assay [2] was less than 100 nM each time. `C=CS(=O)(=O)N1CCCC(n2nc(-c3ccc(Oc4ccccc4)cc3)c(C(N)=O)c2N)C1` (stereo not shown) [Example 27, 5-amino-3-(4-phenoxyphenyl)-1-(1-(vinylsulfonyl)piperidin-3-yl)-1H-pyrazole-4-carboxamide]: the IC50 in assay [1] and in assay [2] was less than 100 nM each time.

On to `NC(=O)c1c(-c2ccc(Oc3ccccc3)cc2)nn(C2CCCN(C(=O)CCl)C2)c1N` (stereo not shown) [Example 28, 5-amino-1-(1-(2-chloroacetyl)piperidin-3-yl)-3-(4-phenoxyphenyl)-1H-pyrazole-4-carboxamide], for which the IC50 in assay [1] and in assay [2] was less than 100 nM in each case. In the case of `CN(C)C/C=C/C(=O)N1CCCC(n2nc(-c3ccc(Oc4ccccc4)cc3)c(C(N)=O)c2N)C1` (stereo not shown) [Example 29, (E)-5-amino-1-(1-(4-(dimethylamino)but-2-enoyl)piperidin-3-yl)-3-(4-phenoxyphenyl)-1H-pyrazole-4-carboxamide], the IC50 in assay [1] and in assay [2] was less than 100 nM throughout. With `C=CC(=O)N(C)CCn1nc(-c2ccc(Oc3ccccc3)cc2)c(C(N)=O)c1N` [Example 30, 5-amino-1-(2-(N-methylacrylamido)ethyl)-3-(4-phenoxyphenyl)-1H-pyrazole-4-carboxamide], the IC50 in assay [1] and in assay [2] was less than 100 nM each time. Consider `C=CC(=O)NCCn1nc(-c2ccc(Oc3ccccc3)cc2)c(C(N)=O)c1N` [Example 31, 1-(2-acrylamidoethyl)-5-amino-3-(4-phenoxyphenyl)-1H-pyrazole-4-carboxamide], for which the IC50 in assay [1] and in assay [2] was less than 100 nM throughout. Turning to `C#CC(=O)N(C)CCn1nc(-c2ccc(Oc3ccccc3)cc2)c(C(N)=O)c1N` [Example 32, 5-amino-1-(2-(N-methylpropiolamido)ethyl)-3-(4-phenoxyphenyl)-1H-pyrazole-4-carboxamide], the 50% inhibitory concentration (IC50) in assay [1] and in assay [2] was less than 100 nM each time. For the compound `C=CS(=O)(=O)N(C)CCn1nc(-c2ccc(Oc3ccccc3)cc2)c(C(N)=O)c1N` [Example 33, 5-amino-1-(2-(N-methylvinylsulfonamido)ethyl)-3-(4-phenoxyphenyl)-1H-pyrazole-4-carboxamide], the IC50 in assay [1] and in assay [2] was less than 100 nM in each case. As for `CN(CCn1nc(-c2ccc(Oc3ccccc3)cc2)c(C(N)=O)c1N)C(=O)CCl` [Example 34, 5-amino-1-(2-(2-chloro-N-methylacetamido)ethyl)-3-(4-phenoxyphenyl)-1H-pyrazole-4-carboxamide], the IC50 in assay [1] and in assay [2] was less than 100 nM in each case. On to `CN(C)C/C=C/C(=O)N(C)CCn1nc(-c2ccc(Oc3ccccc3)cc2)c(C(N)=O)c1N` [Example 35, (E)-5-amino-1-(2-(4-(dimethylamino)-N-methylbut-2-enamido)ethyl)-3-(4-phenoxyphenyl)-1H-pyrazole-4-carboxamide], for which the IC50 in assay [1] and in assay [2] was less than 100 nM in each case. For the compound `C=CC(=O)N1CCCC(n2nc(-c3ccc(Oc4ccccc4)cc3)c(C(N)=S)c2N)C1` (stereo not shown) [Example 37, 1-(1-acryloylpiperidin-3-yl)-5-amino-3-(4-phenoxyphenyl)-1H-pyrazole-4-carbothioamide], the IC50 in assay [1] and in assay [2] was less than 100 nM each time.

On to `C=CC(=O)N1CC[C@@H](n2nc(-c3ccc(Oc4cc(F)cc(F)c4)cc3)c(C(N)=O)c2N)C1` [Example 41, (R)-1-(1-acryloylpyrrolidin-3-yl)-5-amino-3-(4-(3,5-difluorophenoxyl)phenyl)-1H-pyrazole-4-carboxamide], for which the IC50 in assay [1] and in assay [2] was less than 100 nM each time.

Regarding `C=CC(=O)N1CC[C@@H](n2nc(-c3ccc(Oc4cccc(OC)c4)cc3)c(C(N)=O)c2N)C1` [Example 42, (R)-1-(1-acryloylpyrrolidin-3-yl)-5-amino-3-(4-(3-methoxyphenoxyl)phenyl)-1H-pyrazole-4-carboxamide], the IC50 in assay [1] and in assay [2] was less than 100 nM each time. In the case of `C=CC(=O)N1CC[C@@H](n2nc(-c3ccc(Oc4ccc(Cl)cc4)cc3)c(C(N)=O)c2N)C1` [Example 43, (R)-1-(1-acryloylpyrrolidin-3-yl)-5-amino-3-(4-(4-chlorophenoxyl)phenyl)-1H-pyrazole-4-carboxamide], the IC50 in assay [1] and in assay [2] was less than 100 nM in each case.

For `C=CC(=O)N1CC[C@@H](n2nc(-c3ccc(Oc4cccc(C(F)(F)F)c4)cc3)c(C(N)=O)c2N)C1` [Example 44, (R)-1-(1-acryloylpyrrolidin-3-yl)-5-amino-3-(4-(3-(trifluoromethyl)phenoxy)phenyl)-1H-pyrazole-4-carboxamide], the IC50 in assay [1] and in assay [2] was less than 100 nM throughout.

As usually defined, the IC50 is the concentration that gives 50% inhibition.

The values are drawn from US9926299B2, “Inhibitors of bruton's tyrosine kinase” (Centaurus BioPharma Co., Ltd., priority 2012, dated 2018).
